Experiment [1] concerns the target T1, Protein kinase C zeta type (Homo sapiens, UniProt Q05513).
T1 sequence (Q05513 whole entry): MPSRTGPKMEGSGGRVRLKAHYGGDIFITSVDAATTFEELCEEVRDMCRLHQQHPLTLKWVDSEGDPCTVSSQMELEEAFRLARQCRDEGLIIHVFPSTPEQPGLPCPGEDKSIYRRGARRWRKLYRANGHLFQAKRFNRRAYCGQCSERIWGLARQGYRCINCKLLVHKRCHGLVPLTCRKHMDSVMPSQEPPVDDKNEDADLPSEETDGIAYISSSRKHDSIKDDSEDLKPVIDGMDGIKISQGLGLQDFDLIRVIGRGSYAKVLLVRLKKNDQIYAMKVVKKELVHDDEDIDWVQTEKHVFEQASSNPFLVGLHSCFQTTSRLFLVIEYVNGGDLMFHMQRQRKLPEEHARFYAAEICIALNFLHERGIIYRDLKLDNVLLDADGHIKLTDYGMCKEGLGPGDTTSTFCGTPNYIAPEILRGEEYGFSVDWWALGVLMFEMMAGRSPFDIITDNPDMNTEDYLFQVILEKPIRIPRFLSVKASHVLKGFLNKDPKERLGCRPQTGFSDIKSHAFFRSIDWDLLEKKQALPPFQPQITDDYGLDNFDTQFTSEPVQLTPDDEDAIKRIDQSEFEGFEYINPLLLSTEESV
The experiment is described as follows: Inhibition of Protein kinase C zeta.

Experiment [2] deals with T2, Protein kinase C epsilon type (Homo sapiens, UniProt Q02156).
T2 sequence (Q02156 whole entry): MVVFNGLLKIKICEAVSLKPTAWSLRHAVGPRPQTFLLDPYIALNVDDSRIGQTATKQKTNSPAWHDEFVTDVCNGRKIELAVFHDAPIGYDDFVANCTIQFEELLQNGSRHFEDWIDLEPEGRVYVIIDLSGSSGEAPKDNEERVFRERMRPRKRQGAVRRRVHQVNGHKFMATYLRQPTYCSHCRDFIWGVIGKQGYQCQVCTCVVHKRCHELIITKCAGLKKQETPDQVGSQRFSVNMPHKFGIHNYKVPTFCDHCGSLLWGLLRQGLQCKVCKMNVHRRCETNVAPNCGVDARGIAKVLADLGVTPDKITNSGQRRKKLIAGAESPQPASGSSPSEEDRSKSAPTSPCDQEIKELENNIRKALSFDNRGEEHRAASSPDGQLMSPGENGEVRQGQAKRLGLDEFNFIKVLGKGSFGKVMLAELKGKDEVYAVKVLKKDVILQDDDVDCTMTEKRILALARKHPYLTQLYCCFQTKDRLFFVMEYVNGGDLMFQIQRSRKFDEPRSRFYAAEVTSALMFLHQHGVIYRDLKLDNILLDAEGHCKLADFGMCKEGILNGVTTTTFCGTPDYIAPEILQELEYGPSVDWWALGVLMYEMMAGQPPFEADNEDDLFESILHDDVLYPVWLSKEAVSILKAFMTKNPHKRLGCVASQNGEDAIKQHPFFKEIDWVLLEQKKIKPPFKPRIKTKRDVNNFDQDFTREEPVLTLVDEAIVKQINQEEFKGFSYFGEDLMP
As to the kind of experiment: Inhibition of human Protein kinase C epsilon.

Experiment [3] has as its target Protein kinase C delta type (Homo sapiens, UniProt Q05655). The experiment is described as follows: Inhibition of human Protein kinase C delta.
In experiment [4] the target is T3, Protein kinase C beta type (Homo sapiens, UniProt P05771). The experiment is described as follows: Inhibition of human Protein kinase C beta 1.
T3 sequence (P05771 whole entry): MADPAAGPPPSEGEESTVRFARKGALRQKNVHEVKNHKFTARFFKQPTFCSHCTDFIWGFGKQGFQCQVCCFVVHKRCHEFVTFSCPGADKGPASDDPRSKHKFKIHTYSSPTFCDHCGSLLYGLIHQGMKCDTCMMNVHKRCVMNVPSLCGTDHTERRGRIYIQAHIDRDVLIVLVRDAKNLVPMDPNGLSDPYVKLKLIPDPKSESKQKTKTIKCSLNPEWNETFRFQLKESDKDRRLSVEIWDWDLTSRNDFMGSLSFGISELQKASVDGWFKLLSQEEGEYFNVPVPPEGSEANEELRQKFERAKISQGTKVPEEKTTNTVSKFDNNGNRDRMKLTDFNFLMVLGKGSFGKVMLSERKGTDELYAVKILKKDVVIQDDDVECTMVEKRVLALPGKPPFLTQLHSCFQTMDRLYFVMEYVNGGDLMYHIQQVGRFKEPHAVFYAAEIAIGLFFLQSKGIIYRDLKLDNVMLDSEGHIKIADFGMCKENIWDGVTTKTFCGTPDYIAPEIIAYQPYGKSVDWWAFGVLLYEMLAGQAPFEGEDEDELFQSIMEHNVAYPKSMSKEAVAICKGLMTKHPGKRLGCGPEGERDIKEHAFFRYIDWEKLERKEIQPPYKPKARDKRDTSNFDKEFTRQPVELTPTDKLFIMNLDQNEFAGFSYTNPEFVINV
The target of experiment [5] is Protein kinase C gamma type (Homo sapiens, UniProt P05129). As to the kind of experiment: Inhibition of human Protein kinase C gamma.
In experiment [6] the target is Protein kinase C alpha type (Homo sapiens, UniProt P17252). The experiment is described as follows: Inhibition of human Protein kinase C alpha.
Experiment [7] concerns the target Protein kinase C eta type (Homo sapiens, UniProt P24723). As to the kind of experiment: Inhibition of human protein kinase C eta.
The target in experiment [8] is T3, Protein kinase C beta type. As to the kind of experiment: Inhibition of human Protein kinase C beta 2.

From ChEMBL document CHEMBL1150040 (Bioorg Med Chem Lett, 1995) come the findings set out here.

pIC50: −log10 of the molar value. A value given as a limit tells only on which side of the number the result lay.

Usually pIC50 stands for −log10 of the IC50, conventionally taken in molar units. Low readings indicate a high IC50, high ones a low IC50.

Protein kinase C delta type, sequence (Q05655 whole entry): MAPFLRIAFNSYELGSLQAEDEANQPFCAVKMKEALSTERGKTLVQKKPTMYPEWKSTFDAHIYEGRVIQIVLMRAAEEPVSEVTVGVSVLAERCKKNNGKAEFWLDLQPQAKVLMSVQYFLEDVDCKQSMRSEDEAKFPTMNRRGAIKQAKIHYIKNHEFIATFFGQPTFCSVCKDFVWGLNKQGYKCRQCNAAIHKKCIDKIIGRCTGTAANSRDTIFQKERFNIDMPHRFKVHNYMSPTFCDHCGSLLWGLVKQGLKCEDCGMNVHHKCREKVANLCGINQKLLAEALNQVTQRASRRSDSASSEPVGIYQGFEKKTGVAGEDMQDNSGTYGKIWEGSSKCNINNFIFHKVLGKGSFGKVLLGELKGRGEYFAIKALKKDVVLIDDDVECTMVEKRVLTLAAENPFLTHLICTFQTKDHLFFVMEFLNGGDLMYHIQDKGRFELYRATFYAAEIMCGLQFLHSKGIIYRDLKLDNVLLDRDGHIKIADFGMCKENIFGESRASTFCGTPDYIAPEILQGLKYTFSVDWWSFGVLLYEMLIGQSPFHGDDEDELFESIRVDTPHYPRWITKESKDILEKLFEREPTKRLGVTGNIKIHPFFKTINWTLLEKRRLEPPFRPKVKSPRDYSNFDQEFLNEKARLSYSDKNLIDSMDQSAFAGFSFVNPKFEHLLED
Protein kinase C eta type, sequence (P24723 whole entry): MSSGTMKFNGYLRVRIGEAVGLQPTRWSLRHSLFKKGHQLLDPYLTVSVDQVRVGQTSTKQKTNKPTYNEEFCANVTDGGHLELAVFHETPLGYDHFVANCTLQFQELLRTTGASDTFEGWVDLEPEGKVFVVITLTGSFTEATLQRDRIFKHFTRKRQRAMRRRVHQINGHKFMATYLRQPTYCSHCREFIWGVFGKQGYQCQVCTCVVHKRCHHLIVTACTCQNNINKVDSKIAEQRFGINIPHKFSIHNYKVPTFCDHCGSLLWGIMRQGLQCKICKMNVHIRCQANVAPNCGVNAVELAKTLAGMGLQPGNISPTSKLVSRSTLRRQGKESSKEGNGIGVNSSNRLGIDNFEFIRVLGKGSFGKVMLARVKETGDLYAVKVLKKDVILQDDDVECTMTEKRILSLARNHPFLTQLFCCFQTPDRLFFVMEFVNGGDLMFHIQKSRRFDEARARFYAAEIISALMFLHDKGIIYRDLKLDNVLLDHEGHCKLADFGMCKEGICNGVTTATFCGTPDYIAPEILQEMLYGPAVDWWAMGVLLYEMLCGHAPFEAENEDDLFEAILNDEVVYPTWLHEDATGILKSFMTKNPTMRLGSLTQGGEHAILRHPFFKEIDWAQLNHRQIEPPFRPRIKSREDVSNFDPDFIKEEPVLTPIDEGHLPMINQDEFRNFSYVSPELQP

Regarding `O=C(N[C@@H]1CCCCC[C@H]1OC(=O)c1cc(O)c(C(=O)c2c(O)cccc2C(=O)O)c(O)c1)c1ccc(O)cc1`, the pIC50 was less than 3.82 in experiment [1]; 6.55 in experiment [2]; 7.05 in experiment [3]; 6.66 in experiment [4]; 7.22 in experiment [5]; 6.57 in experiment [6]. The values for the pIC50 in experiment [7] and in experiment [8] were 7.22 and 6.37, respectively.

As to `O=C(N[C@@H]1CCC[C@H]1OC(=O)c1cc(O)c(C(=O)c2c(O)cccc2C(=O)O)c(O)c1)c1ccc(O)cc1`, the pIC50 in experiment [2] was 7.30; in experiment [3], 9.05; in experiment [4], 7.40; in experiment [5], 8.00; in experiment [6], 7.40; in experiment [7], 9.22. The compound further showed a pIC50 in experiment [8] of 7.30.

In the case of `O=C(N[C@@H]1CNC[C@H]1OC(=O)c1cc(O)c(C(=O)c2c(O)cccc2C(=O)O)c(O)c1)c1ccc(O)cc1`, the pIC50 was less than 6.82 in experiment [1]; 8.00 in experiment [2]; 8.30 in experiment [3]; 7.77 in experiment [4]; 7.89 in experiment [5]; 7.66 in experiment [6]. The pIC50 in experiment [7] is 8.40; in experiment [8], 7.48.

On to `O=C(N[C@@H]1CNCC[C@H]1OC(=O)c1cc(O)c(C(=O)c2c(O)cccc2C(=O)O)c(O)c1)c1ccc(O)cc1`, for which the pIC50 in experiment [1] is less than 3.82; in experiment [2] it was 5.74; in experiment [3], 7.30; in experiment [4], 5.66; in experiment [5], 5.66; in experiment [6] it was 5.29. Further, the pIC50 is 7.10 in experiment [7] and 5.33 in experiment [8].

Take `O=C(N[C@@H]1CNCCC[C@H]1OC(=O)c1cc(O)c(C(=O)c2c(O)cccc2C(=O)O)c(O)c1)c1ccc(O)cc1` (racemic) [BALANOL]: the pIC50 in experiment [1] was 5.46; in experiment [3], 7.49; in experiment [4] it was 7.49; in experiment [5], 7.47; in experiment [6], 7.13; in experiment [7], 7.66. The pIC50 in experiment [8] was 7.36.
